A short description of data set [1]: Hepatocyte intrinsic clearance assay. The settings on record: pooled donor, cryopreserved hepatocytes, pH 7.4; human hepatocytes 1×10^6/mL; 0.05 μM; 2 h at 37° C. Type of data set: in vitro ADME, Human. As for the experimental part: (§1) Test compounds (final concentration 0.05 μM, 0.05% organic) were incubated for 2 h at 37° C., with shaking, in supplemented Leibovitz L-15 media (pH 7.4) containing commercially sourced, pooled donor, cryopreserved hepatocytes (final concentration 1×10^6 hepatocytes/mL). The CLint reactions (350 μL) were initiated by addition of test compound. Aliquots (25 μL) were taken at 1, 5, 10, 15, 30, 60, 90 and 120 minutes and then protein crashed with ice-cold acetonitrile containing internal standard (150 μL) then centrifuged (1960 g for 20 minutes at 4° C.). Supernatant was diluted (1:4) with deionized water then analyzed by liquid chromatography (LC)-tandem mass spectrometry (MS/MS).

A short description of data set [2]: Rat brain disposition after oral gavage. Type of data set: in vivo, male Sprague-Dawley rats. The settings on record: male, Sprague-Dawley, 1 h, mean ± stdev; for Kp at 1 h / Kp uu at 1 h: n=3. The gist of the method:
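Male Sprague-Dawley rats (n=3) dosed orally at 10 or 5 mg/kg in 0.5% HPMC suspension; plasma and brain taken at 0.5 or 1 h. LC-MS/MS quantitation; Kp is total brain:plasma ratio, and Kp,uu was derived using rat fu in plasma and brain.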

Data set [3] deals with pooled donor, cryopreserved hepatocytes. Briefly: Hepatocyte intrinsic clearance assay. Type of data set: in vitro ADME, Human. The settings on record: based on hepatocyte CLint values of Table 5. As for the experimental part:
as §1

In data set [4] the test system is panel of 403 wild type kinases. Briefly: Broad kinase selectivity, KINOMEscan scanMAX panel. Type of data set: binding, primarily of human origin. The settings on record: 10 nM. As for the experimental part:
Protein kinase profiling of the inhibitors (Fabian, M. A. et al. A small molecule-kinase interaction map for clinical kinase inhibitors. Nat. Biotechnol. 23, 329-336 (2005)) were undertaken at a concentration of 0.010 μM and carried out in Eurofins DiscoverX KINOMEscan scanMAX panel of 403 wild type kinases (primarily of human origin) covering AGC (PKA, PKG, PKC family kinases), CAMK (Calcium/calmodulin-dependent protein kinases), CK1 (Casein kinase 1 kinases), CMGC (CDK, MAPK, GSK3, CLK families), STE (homologs of yeast Sterile 7, Sterile 11, Sterile 20 kinases), TK (Tyrosine kinases), TKL (Tyrosine kinase-like kinases), lipid and atypical kinase families.
Selectivity Score or S-score is a quantitative measure of compound selectivity. It was calculated by dividing the number of kinases that a compound binds to by the total number of distinct kinases tested, excluding mutant variants. S=Number of hits/Number of assays. This value can be calculated using % Ctrl as a potency threshold (below) and provides a quantitative method of describing compound selectivity to facilitate comparison of different compounds.

Setting [5] is: brain, oral 5 mg/kg, n=3, read-out: Total brain concentration.
Setting [6] is: plasma, oral 5 mg/kg, n=3, read-out: Total plasma concentration.

Experimental findings from patent US11958865B1, “Leucine-rich repeat kinase 2 (LRRK2) inhibitors” (H. Lundbeck A/S, priority 2022, dated 2024) are described below.

SMILES strings stand for the structures. Where two headings read alike, the source gives them in different places.

For the compound `COc1ncc(C)cc1-n1nc2c(c1C)Nc1ncc3c(Cl)nn(c3n1)CCCO2` [Example 12, 8-Chloro-2-(2-methoxy-5-methylpyridin-3-yl)-3-methyl-2,4,12,13-tetrahydro-11H-5,7-(azenometheno)dipyrazolo[3,4-b:5′,1′-g][1]oxa[4,6,8]triazacycloundecine], the CLint scaled at 0.05 μM in data set [1] was 8 mL/min/kg. For the same compound, in data set [2] (brain, oral 5 mg/kg), the Kp at 1 h worked out at 1.9 ± 0.3 and the Kp uu at 1 h turned out to be 0.85 ± 0.15. The concentration at 1 h in data set [2] (setting [5]) is 146 ± 56 ng/g. Further, in data set [2] (setting [6]), the concentration at 1 h was found to be 76 ± 23 ng/mL.
For `COc1nccc(C)c1-n1nc2c(c1C)Nc1ncc3c(Cl)nn(c3n1)CCCO2` [Example 7, 8-Chloro-2-(2-methoxy-4-methylpyridin-3-yl)-3-methyl-2,4,12,13-tetrahydro-11H-5,7-(azenometheno)dipyrazolo[3,4-b:5′,1′-g][1]oxa[4,6,8]triazacycloundecine] the same measures were 7.83 mL/min/kg, 1.9 ± 0.3, 0.68 ± 0.12, 10 ± 2 ng/g and 6 ± 2 ng/mL.
`COc1nc(C)ncc1-n1nc2c(c1C)Nc1ncc3c(Cl)nn(c3n1)CCCO2` [Example 22, 8-Chloro-2-(4-methoxy-2-methylpyrimidin-5-yl)-3-methyl-2,4,12,13-tetrahydro-11H-5,7-(azenometheno)dipyrazolo[3,4-b:5′,1′-g][1]oxa[4,6,8]triazacycloundecine]: the intrinsic metabolic clearance (CLint scaled) at 0.05 μM in data set [1] is below 4 mL/min/kg. Besides, in data set [2] (brain, oral 5 mg/kg), the Kp at 1 h amounted to 2.5 ± 0.4 and the Kp uu at 1 h was 1.02 ± 0.17. In addition, in data set [2] (setting [5]), the concentration at 1 h is 216 ± 42 ng/g. In addition, the concentration at 1 h in data set [2] (setting [6]) was 86 ± 8 ng/mL.
For `Cc1c2c(nn1-c1cccnc1C(C)(F)F)OCCCn1nc(Cl)c3cnc(nc31)N2` [Example 14, 8-Chloro-2-(2-(1,1-difluoroethyl)pyridin-3-yl)-3-methyl-2,4,12,13-tetrahydro-11H-5,7-(azenometheno)dipyrazolo[3,4-b:5′,1′-g][1]oxa[4,6,8]triazacycloundecine], in that order: 7.83 mL/min/kg, 1.2 ± 0.1, 0.49 ± 0.04, 347 ± 53 ng/g and 283 ± 57 ng/mL.
As to `COc1nc(C)ccc1-n1nc2c(c1C)Nc1ncc3c(Cl)nn(c3n1)CCCO2` [Example 13, 8-Chloro-2-(2-methoxy-6-methylpyridin-3-yl)-3-methyl-2,4,12,13-tetrahydro-11H-5,7-(azenometheno)dipyrazolo[3,4-b:5′,1′-g][1]oxa[4,6,8]triazacycloundecine], in data set [3], the “Rate of metabolism classification (hepatocyte CLint)” value was “moderate to high rate of metabolism”. The compound further gave a CLint scaled at 0.05 μM in data set [1] of 31.3 mL/min/kg. Also, the Kp at 1 h in data set [2] (brain, oral 5 mg/kg) stood at 2.5 ± 0.1. The compound also showed a Kp uu at 1 h in data set [2] (brain, oral 5 mg/kg) of 0.74 ± 0.01. Besides, the concentration at 1 h in data set [2] (setting [5]) is 496 ± 128 ng/g; in data set [2] (setting [6]), 199 ± 52 ng/mL.
`COc1ncccc1-n1nc2c(c1C)Nc1ncc3c(Cl)nn(c3n1)CCCO2` [Example 1, 8-Chloro-2-(2-methoxypyridin-3-yl)-3-methyl-2,4,12,13-tetrahydro-11H-5,7-(azenometheno)dipyrazolo[3,4-b:5′,1′-g][1]oxa[4,6,8]triazacycloundecine]: the CLint scaled at 0.05 μM in data set [1] is 10.7 mL/min/kg. For the same compound, the “Selectivity Score S(1)” value in data set [4] (hits with % Ctrl <1 / 403 non-mutant kinases) is 0.005. Further, the “Selectivity Score S(10)” value in data set [4] (hits with % Ctrl <10 / 403 non-mutant kinases) came out at 0.01. Further, the “Selectivity Score S(35)” value in data set [4] (hits with % Ctrl <35 / 403 non-mutant kinases) came to 0.03. Besides, the “Number of Hits, S(1)” value in data set [4] (kinases with % Ctrl <1, 403 non-mutant kinases, includes LRRK2 WT) is listed as 2. In addition, the “Number of Hits, S(10)” value in data set [4] (kinases with % Ctrl <10, 403 non-mutant kinases) stood at 4. In addition, the “Number of Hits, S(35)” value in data set [4] (kinases with % Ctrl <35, 403 non-mutant kinases) is on record as 12. In addition, in data set [2] (brain, oral 10 mg/kg), the Kp at 1 h was 2.6 ± 0.2 and the Kp uu at 1 h is 0.83 ± 0.07. Also, in data set [2] (brain, oral 10 mg/kg, n=3, read-out: Total brain concentration), the concentration at 1 h is 620 ± 280 ng/g. Further, in data set [2] (plasma, oral 10 mg/kg, n=3, read-out: Total plasma concentration), the concentration at 1 h stood at 245 ± 121 ng/mL.
With `Cc1nc(C)c(-n2nc3c(c2C)Nc2ncc4c(Cl)nn(c4n2)CCCO3)cc1F` [Example 15, 8-Chloro-2-(5-fluoro-2,6-dimethylpyridin-3-yl)-3-methyl-2,4,12,13-tetrahydro-11H-5,7-(azenometheno)dipyrazolo[3,4-b:5′,1′-g][1]oxa[4,6,8]triazacycloundecine], the CLint scaled at 0.05 μM in data set [1] was 12 mL/min/kg. In data set [2] (brain, oral 5 mg/kg), the Kp at 1 h stood at 1.8 ± 0.2 and the Kp uu at 1 h is 0.81 ± 0.07. The concentration at 1 h in data set [2] (setting [5]) amounted to 254 ± 32 ng/g. Moreover, in data set [2] (setting [6]), the concentration at 1 h came to 143 ± 8 ng/mL.
